Measurements reported in ChEMBL document CHEMBL6127088, “Novel 2-aminothiazole analogues both as polymyxin E synergist and antimicrobial agent against multidrug-resistant Gram-positive bacteria” (2024).
Values after ≈ are worked out from the molar mass of the structure shown. Active and inactive are the calls of the source. No cut-off for these calls is given here.

Legend:
[1] = tested on: Pseudomonas aeruginosa; assay: Synergistic antibacterial activity against Pseudomonas aeruginosa […] assessed as polymyxin-E MIC at 4 microg/ml incubated for 18 hrs by broth microdilution method; assay type: functional; details: dose 4 µg/ml
[2] = tested on: Cell membrane; assay: Induction of outer membrane disruption in Acinetobacter baumannii ATCC 19606 assessed as decrease in fluorescence intensity in presence of polymyxin-E by NPN dye based fluorescence analysis; assay type: subcellular
[3] = tested on: Pseudomonas aeruginosa; assay: Synergistic antibacterial activity against Pseudomonas aeruginosa PAE 3887 assessed as fold change in polymyxin-E MIC incubated for 18 hrs by broth microdilution method relative to polymyxin-E alone; assay type: functional
[4] = tested on: Klebsiella pneumoniae; assay: Synergistic antibacterial activity against Klebsiella pneumoniae SIPI-KPN-1712 assessed as fold change in polymyxin-E MIC incubated for 18 hrs by broth microdilution method relative to polymyxin-E alone; assay type: functional
[5] = tested on: Acinetobacter baumannii; assay: Antibacterial activity against Acinetobacter baumannii ATCC 19606 infected in female Balb/c mouse model assessed as increase in animal survival at 64 mg/kg, iv administered every 12 hrs and measured for 7 days; assay type: functional, organism-based
[6] = tested on: Pseudomonas aeruginosa; assay: Synergistic antibacterial activity against Pseudomonas aeruginosa […] assessed as fold change in polymyxin-E MIC incubated for 18 hrs by broth microdilution method relative to polymyxin-E alone; assay type: functional
[7] = tested on: Bacillus subtilis; assay: Antibacterial activity against Bacillus subtilis 168 assessed as inhibition of bacterial growth incubated for 18 hrs by broth microdilution method; assay type: functional
[8] = tested on: Acinetobacter baumannii; assay: Synergistic antibacterial activity against Acinetobacter baumannii Ab 1613 assessed as fold change in polymyxin-E MIC incubated for 18 hrs by broth microdilution method relative to polymyxin-E alone; assay type: functional
[9] = tested on: Acinetobacter baumannii; assay: Synergistic antibacterial activity against Acinetobacter baumannii ATCC 19606 assessed as polymyxin-E MIC at 4 microg/ml incubated for 18 hrs by broth microdilution method; assay type: functional; details: dose 4 µg/ml
[10] = tested on: Acinetobacter baumannii; assay: Antibacterial activity against Acinetobacter baumannii Ab 1613 incubated for 18 hrs by broth microdilution method; assay type: functional
[11] = tested on: Klebsiella pneumoniae; assay: Synergistic antibacterial activity against Klebsiella pneumoniae KPN 943 assessed as fractional inhibitory concentration index at 4 microg/ml incubated for 18 to 20 hrs by chequerboard assay; assay type: functional; details: dose 4 µg/ml; time 18-20 hrs
[12] = tested on: Pseudomonas aeruginosa; assay: Synergistic antibacterial activity against Pseudomonas aeruginosa […] assessed as fractional inhibitory concentration index at 4 microg/ml incubated for 18 to 20 hrs by chequerboard assay; assay type: functional; details: dose 4 µg/ml; time 18-20 hrs
[13] = tested on: Klebsiella pneumoniae; assay: Antibacterial activity against Klebsiella pneumoniae KPN 943 incubated for 18 hrs by broth microdilution method; assay type: functional
[14] = tested on: Acinetobacter baumannii; assay: Antibacterial activity against Acinetobacter baumannii ATCC 19606 assessed as inhibition of bacterial growth at 4 microg/ml incubated for overnight in presence of 0.25 microg/ml polymyxin-E and measured with in 8 hrs by time-kill assay; assay type: functional, organism-based; details: dose 4.0 µg/ml
[15] = tested on: Staphylococcus aureus; assay: Antibacterial activity against Staphylococcus aureus S1-1-33 assessed as inhibition of bacterial growth incubated for 18 hrs by broth microdilution method; assay type: functional
[16] = tested on: Acinetobacter baumannii; assay: Antibacterial activity against Acinetobacter baumannii ATCC 19606 assessed as inhibition of bacterial growth at 4 microg/ml incubated for overnight in presence of 0.25 microg/ml polymyxin-E and measured at 24 hrs by time-kill assay; assay type: functional, organism-based; details: dose 4.0 µg/ml
[17] = tested on: Acinetobacter baumannii; assay: Synergistic antibacterial activity against Acinetobacter baumannii ATCC 19606 infected in female Balb/c mouse model assessed as survival rate of mouse at 64 mg/kg, iv administered every 12 hrs in presence of polymyxin-E and measured for 7 days; assay type: functional
[18] = tested on: Cell membrane; assay: Disruption of cell membrane integrity in Acinetobacter baumannii ATCC 19606 assessed as cellular damage at 4 microg/ml incubated for 1 hrs by TEM analysis; details: dose 4.0 µg/ml
[19] = tested on: Listeria monocytogenes; assay: Antibacterial activity against Listeria monocytogenes assessed as inhibition of bacterial growth incubated for 18 hrs by broth microdilution method; assay type: functional
[20] = tested on: Acinetobacter baumannii; assay: Synergistic antibacterial activity against Acinetobacter baumannii ATCC 19606 assessed as fold change in polymyxin-E MIC incubated for 18 hrs by broth microdilution method relative to polymyxin-E alone; assay type: functional
[21] = tested on: Staphylococcus aureus; assay: Antibacterial activity against Staphylococcus aureus NCTC 8325 assessed as inhibition of bacterial growth incubated for 18 hrs by broth microdilution method; assay type: functional
[22] = tested on: Klebsiella pneumoniae; assay: Antibacterial activity against Klebsiella pneumoniae SIPI-KPN-1712 incubated for 18 hrs by broth microdilution method; assay type: functional
[23] = tested on: Staphylococcus aureus; assay: Antibacterial activity against Staphylococcus aureus SF 8300 assessed as inhibition of bacterial growth incubated for 18 hrs by broth microdilution method; assay type: functional
[24] = tested on: Pseudomonas aeruginosa; assay: Antibacterial activity against Pseudomonas aeruginosa PAE 3887 incubated for 18 hrs by broth microdilution method; assay type: functional
[25] = tested on: Lacticaseibacillus rhamnosus; assay: Antibacterial activity against Lactobacillus rhamnosus assessed as inhibition of bacterial growth incubated for 18 hrs by broth microdilution method; assay type: functional
[26] = tested on: Pseudomonas aeruginosa; assay: Synergistic antibacterial activity against Pseudomonas aeruginosa PAE 1051 assessed as polymyxin-E MIC at 4 microg/ml incubated for 18 hrs by broth microdilution method; assay type: functional; details: dose 4 µg/ml
[27] = tested on: Pseudomonas aeruginosa; assay: Synergistic antibacterial activity against Pseudomonas aeruginosa PAE 1051 assessed as fold change in polymyxin-E MIC incubated for 18 hrs by broth microdilution method relative to polymyxin-E alone; assay type: functional
[28] = tested on: Acinetobacter baumannii; assay: Antibacterial activity against Acinetobacter baumannii ATCC 19606 assessed as inhibition of bacterial growth at 16 microg/ml incubated for overnight by time-kill assay; assay type: functional, organism-based; details: dose 16.0 µg/ml
[29] = tested on: Lactiplantibacillus plantarum; assay: Antibacterial activity against Lactobacillus plantarum assessed as inhibition of bacterial growth incubated for 18 hrs by broth microdilution method; assay type: functional
[30] = tested on: Acinetobacter baumannii; assay: Synergistic antibacterial activity against Acinetobacter baumannii Ab 1613 assessed as polymyxin-E MIC at 4 microg/ml incubated for 18 hrs by broth microdilution method; assay type: functional; details: dose 4 µg/ml
[31] = tested on: Acinetobacter baumannii; assay: Synergistic antibacterial activity against Acinetobacter baumannii Ab 1611 assessed as fold change in polymyxin-E MIC incubated for 18 hrs by broth microdilution method relative to polymyxin-E alone; assay type: functional
[32] = tested on: Enterococcus faecalis; assay: Antibacterial activity against Enterococcus faecalis ATCC 51299 assessed as inhibition of bacterial growth incubated for 18 hrs by broth microdilution method; assay type: functional
[33] = tested on: Klebsiella pneumoniae; assay: Synergistic antibacterial activity against Klebsiella pneumoniae KPN 943 assessed as fold change in polymyxin-E MIC incubated for 18 hrs by broth microdilution method relative to polymyxin-E alone; assay type: functional
[34] = tested on: Staphylococcus aureus; assay: Antibacterial activity against Staphylococcus aureus S1-1-7 assessed as inhibition of bacterial growth incubated for 18 hrs by broth microdilution method; assay type: functional
[35] = tested on: Klebsiella pneumoniae; assay: Synergistic antibacterial activity against Klebsiella pneumoniae SIPI-KPN-1712 assessed as fractional inhibitory concentration index at 4 microg/ml incubated for 18 to 20 hrs by chequerboard assay; assay type: functional; details: dose 4 µg/ml; time 18-20 hrs
[36] = tested on: Acinetobacter baumannii; assay: Antibacterial activity against Acinetobacter baumannii ATCC 19606 assessed as inhibition of bacterial growth at 4 microg/ml incubated for overnight in presence of 0.25 microg/ml polymyxin-E by time-kill assay; assay type: functional, organism-based; details: dose 4.0 µg/ml

Question: Which results are given for C/C(=N\Nc1ccccn1)c1csc(Nc2cc(F)cc(C(F)(F)F)c2)n1?
Answer: MIC [1]: 1 µg/mL; Activity [2]: Active; fold change (FC) [3]: 16; fold change (FC) [4]: 16; Activity [5]: inactive; fold change (FC) [6]: 2; MIC [7]: 1 µg/mL (≈ 2.53 µM); fold change (FC) [8]: 4; MIC [9]: 0.031 µg/mL; MIC [10]: > 128 µg/mL; fractional inhibitory concentration index (FICI) [11]: 0.062; fractional inhibitory concentration index (FICI) [12]: 0.531; MIC [13]: > 128 µg/mL; Activity [14]: Active; MIC [15]: 2 µg/mL (≈ 5.06 µM); Activity [16]: Active; survival at 64 mg/kg [17]: 100%; Activity [18]: Active; MIC [19]: 4 µg/mL (≈ 10.1 µM); fold change (FC) [20]: 16; MIC [21]: 0.5 µg/mL (≈ 1.26 µM); MIC [22]: > 128 µg/mL; MIC [23]: 1 µg/mL (≈ 2.53 µM); MIC [24]: > 128 µg/mL; MIC [25]: 0.5 µg/mL (≈ 1.26 µM); MIC [26]: 0.25 µg/mL; fold change (FC) [27]: 4; Activity [28]: inactive; MIC [29]: 1 µg/mL (≈ 2.53 µM); MIC [30]: 0.125 µg/mL; fold change (FC) [31]: 16; MIC [32]: 2 µg/mL (≈ 5.06 µM); fold change (FC) [33]: 32; MIC [34]: 2 µg/mL (≈ 5.06 µM); fractional inhibitory concentration index (FICI) [35]: 0.094; Activity [36]: Active
